Here are results for 49 compounds from patent US4954502A, “1-indolyalkyl-4-(substituted-pyridinyl)piperazines” (Bristol-Myers Squibb Company, priority 1989, dated 1990).

Structures can show the parent of a compound that is named as a salt. Bounds are passed on as bounds.

T1 sequence (P31652 whole entry): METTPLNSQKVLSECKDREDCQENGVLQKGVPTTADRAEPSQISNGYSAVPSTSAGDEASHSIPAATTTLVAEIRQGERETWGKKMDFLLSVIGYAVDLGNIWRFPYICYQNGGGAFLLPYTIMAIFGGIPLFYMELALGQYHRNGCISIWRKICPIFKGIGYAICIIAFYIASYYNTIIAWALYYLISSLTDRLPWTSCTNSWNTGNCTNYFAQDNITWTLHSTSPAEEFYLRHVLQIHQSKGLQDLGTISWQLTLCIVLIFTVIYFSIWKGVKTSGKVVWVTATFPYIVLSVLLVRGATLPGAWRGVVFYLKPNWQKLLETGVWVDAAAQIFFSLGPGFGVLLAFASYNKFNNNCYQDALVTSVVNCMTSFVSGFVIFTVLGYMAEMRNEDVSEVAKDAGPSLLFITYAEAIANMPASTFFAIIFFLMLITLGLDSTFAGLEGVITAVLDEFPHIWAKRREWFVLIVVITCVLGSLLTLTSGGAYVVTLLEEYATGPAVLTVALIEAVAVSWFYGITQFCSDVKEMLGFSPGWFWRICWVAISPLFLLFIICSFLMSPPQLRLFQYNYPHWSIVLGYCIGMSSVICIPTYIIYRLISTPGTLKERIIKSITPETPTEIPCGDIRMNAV

The assay has as its target T1, serotonin uptake (Rattus norvegicus, UniProt P31652).
T1 construct: from tissue
The assay is described as follows: Inhibition of serotonin uptake (in vitro): inhibition of synaptosomal reuptake of tritiated serotonin. Type of assay: biochemical. Here is the method:
Determination of endogenous monoaminergic re-uptake inhibition values both for serotonin and norepinephrine was accomplished using test methods described by P. Skolnick, et al.. Br. J. Pharmacology (1985), 86, pp. 637-644; with only minor modifications. In vitro IC50 (nM) test values were determined for representative compounds of Formula I based on their inhibition of synaptosomal reuptake of tritiated serotonin. Test data IC50 values lower than 500 nM are considered to reflect activity as an inhibitor of serotonin reuptake. Compounds with Ic50 values lower than 1OO nM comprise preferred compounds.
In turn, `Clc1cccc(N2CCN(CCc3c[nH]c4ccccc34)CC2)n1` [Example 14, 4-[6-Chloro-2-pyridinyl]-1-[2-(1H-indol-3-yl)-ethyl]piperazine hydrochloride] came in with an IC50 of 74 nM.

The compound `FC(F)(F)c1cccc(N2CCN(CCc3c[nH]c4ccccc34)CC2)n1` [Example 15, 1-[2-(1H-indol-3-yl)-ethyl]-4-6-trifluoromethyl-2-pyridinyl]piperazine hydrochloride] had an IC50 of 73 nM.

In turn, `COc1cccc(N2CCN(CCc3c[nH]c4ccccc34)CC2)n1` [Example 16, 1-[2-(1H-indol-3-yl)-ethyl]-4[6-methoxy-2-pyridinyl-piperazine hydrate] displayed an IC50 of 88 nM.

On to `FC(F)(F)c1cccnc1N1CCN(CCc2c[nH]c3ccccc23)CC1` [Example 17, 1-[2-(1H-indol-3-yl)-ethyl]-4-[3-trifluoromethyl-2-pyridinyl]piperazine hydrochloride], for which half-maximal inhibition (IC50) required 37 nM.

Compound `COc1cccnc1N1CCN(CCc2c[nH]c3ccccc23)CC1` [Example 18, 1-[2-(1H-indol-3-yl)-ethyl]-4-[3-methoxy-2-pyridinyl]-piperazine] yielded a 50% inhibitory concentration (IC50) of 13 nM.

Compound `Clc1cccc(N2CCN(CCCc3c[nH]c4ccccc34)CC2)n1` [Example 19, 1-(6-Chloro-2-pyridinyl)-4-[3-(1H-indol-3-yl)propyl]piperazine hydrochloride] came in with an IC50 of 98 nM.

As to `COc1cccnc1N1CCN(CCCc2c[nH]c3ccccc23)CC1` [Example 20, 1-[3-(1H-indol-3-yl)-propyl]-4-[3-methoxy-2-pyridinyl]piperazine dihydrochloride hydrate], the IC50 is 1.1 nM.

Turning to `COc1cccnc1N1CCN(CCCCc2c[nH]c3ccccc23)CC1` [Example 21, 1-[4-(1H-indol-3-yl)butyl]-4-(3-methoxy-2-pyridine-1)piperazine dihydrochloride], inhibition was half-maximal at 58 nM (IC50).

`COc1ccc2[nH]cc(C3=CCC(N4CCN(c5cccc(Cl)n5)CC4)CC3)c2c1` (stereo not shown) [Example 23, 3-[4-[4-(6-Chloro-2-pvridinyl)-1-piperazinyl]-1cyclohexen-1-yl]-5-methoxy-1H-indole] had an IC50 of 99 nM.

For the compound `COc1cccnc1N1CCN(CCc2c[nH]c3ccccc23)C(C)C1` (stereo not shown) [Example 25], the midpoint of inhibition, the IC50, lay at 8.6 nM.

Turning to `COc1cccnc1N1C[C@H]2C[C@@H]1CN2CCc1c[nH]c2ccccc12` [Example 26], the IC50 is 106 nM.

The compound `COc1cccnc1N1C[C@@H]2C[C@H]1CN2CCc1c[nH]c2ccccc12` [Example 27] had a half-maximal inhibitory concentration (IC50) of 12.5 nM.

As to `Clc1cccc(N2C[C@@H]3C[C@H]2CN3CCc2c[nH]c3ccccc23)n1` [Example 28], the IC50 came out at 77 nM.

Compound `Clc1cccc(N2C[C@H]3C[C@@H]2CN3CCc2c[nH]c3ccccc23)n1` [Example 29] came in with a concentration for half-maximal inhibition (IC50) of 106 nM.

With `FC(F)(F)c1cccc(N2CCN(CCCc3c[nH]c4ccccc34)CC2)n1` [Example 30], the IC50 turned out to be 192 nM.

Turning to `Clc1cccc(N2CCN(CCCCc3c[nH]c4ccccc34)CC2)n1` [Example 31], the IC50 was 27 nM.

For the compound `FC(F)(F)c1cccc(N2CCN(CCCCc3c[nH]c4ccccc34)CC2)n1` [Example 32], the IC50 worked out at 259 nM.

The compound `FC(F)(F)c1ccnc(N2CCN(CCCc3c[nH]c4ccccc34)CC2)c1` [Example 33] gave an IC50 of 105 nM.

For the compound `COc1cccnc1N1C[C@@H]2C[C@H]1CN2CCCc1c[nH]c2ccccc12` [Example 34], the IC50 worked out at 5.6 nM.

The compound `COc1cccnc1N1C[C@H]2C[C@@H]1CN2CCCc1c[nH]c2ccccc12` [Example 35] yielded an IC50 of 152 nM.

As to `CC(Cc1c[nH]c2ccccc12)N1CCN(c2cccc(Cl)n2)CC1` (stereo not shown) [Example 36, 3-[2-[4-(6-Chloro-2-pyridyl)-1-piperazinyl]propyl]-indole], half-maximal inhibition (IC50) was put at 75 nM.

The compound `FC(F)(F)c1ccnc(N2CCN(CCc3c[nH]c4ccccc34)CC2)c1` [Example 37] came in with an IC50 of 386 nM.

For `COc1ccc2[nH]cc(CCN3CCN(c4ncccc4OC)CC3)c2c1` [Example 38], half-maximal inhibition (IC50) required 11 nM.

`COc1cccnc1N1CCN(CCc2c[nH]c3ccc(F)cc23)CC1` [Example 39] yielded an IC50 of 0.2 nM.

In turn, `COc1ccc2[nH]cc(CCN3CCN(c4cccc(Cl)n4)CC3)c2c1` [Example 40] came in with an IC50 of 177 nM.

For the compound `Fc1ccc2[nH]cc(CCN3CCN(c4cccc(Cl)n4)CC3)c2c1` [Example 41], it took 2.8 nM to reach half-maximal inhibition (IC50).

Take `Clc1cccnc1N1CCN(CCc2c[nH]c3ccccc23)CC1` [Example 42]: it took 520 nM to reach half-maximal inhibition (IC50).

Consider `Fc1ccc2[nH]cc(CCN3CCN(c4cccc(C(F)(F)F)n4)CC3)c2c1` [Example 43], for which it took 73 nM to reach half-maximal inhibition (IC50).

Regarding `COc1ccc2[nH]cc(CCN3CCN(c4cccc(C(F)(F)F)n4)CC3)c2c1` [Example 44], the IC50 amounted to 560 nM.

`Clc1cccc(N2CCN(C3CC=C(c4c[nH]c5ccccc45)CC3)CC2)n1` (stereo not shown) [Example 45] gave an IC50 of 100 nM.

`NC(=O)c1ccc2[nH]cc(C3=CCC(N4CCN(c5cccc(Cl)n5)CC4)CC3)c2c1` (stereo not shown) [Example 46] returned an IC50 of 27 nM.

For the compound `COc1cccnc1N1CCN(CCc2cn(C)c3ccccc23)CC1` [Example 47], the 50% inhibitory concentration (IC50) worked out at 24 nM.

Take `COc1cc2[nH]cc(CCN3CCN(c4cccc(Cl)n4)CC3)c2cc1OC` [Example 48]: the midpoint of inhibition, the IC50, lay at 127 nM.

On to `COc1cccnc1N1CCN(CCCc2cn(C)c3ccccc23)CC1` [Example 50], for which the IC50 worked out at 3.7 nM.

In turn, `Cn1cc(CCCN2CCN(c3cccc(Cl)n3)CC2)c2ccccc21` [Example 51] returned a concentration for half-maximal inhibition (IC50) of 86 nM.

`Clc1ccc(N2CCN(CCc3c[nH]c4ccccc34)CC2)nc1` [Example 54] gave an IC50 of 30 nM.

Turning to `Cn1cc(CCN2CCN(c3cccc(Cl)n3)CC2)c2ccccc21` [Example 55], the midpoint of inhibition, the IC50, lay at 126 nM.

As to `COc1cccnc1N1CCN(CCc2c[nH]c3ccc(Cl)cc23)CC1` [Example 56], the half-inhibitory concentration (IC50) is < 1 nM.

The compound `Clc1ccc2[nH]cc(CCN3CCN(c4cccc(Cl)n4)CC3)c2c1` [Example 57] returned a concentration for half-maximal inhibition (IC50) of 166 nM.

On to `FC(F)(F)c1cccc(N2CCN(CCc3c[nH]c4ccc(Cl)cc34)CC2)n1` [Example 63], for which inhibition was half-maximal at 437 nM (IC50).

`COc1cccnc1N1CCN(CCc2c[nH]c3ccccc23)C(C)C1` (stereo not shown) [Example 64]: the IC50 was < 1 nM.

The compound `COc1ccc2c(CCN3CCN(c4cccc(Cl)n4)CC3)c[nH]c2c1` [Example 65] had an IC50 of 134 nM.

Compound `COc1ccc2c(CCN3CCN(c4ncccc4OC)CC3)c[nH]c2c1` [Example 66] yielded an IC50 of 35.9 nM.

In the case of `CC(CCc1c[nH]c2ccccc12)N1CCN(c2cccc(Cl)n2)CC1` (stereo not shown) [Example 67], the half-inhibitory concentration (IC50) amounted to 142 nM.

`COc1cccnc1N1CCN(C(C)CCc2c[nH]c3ccccc23)CC1` (stereo not shown) [Example 68] gave an IC50 of 36.7 nM.

`COc1cc2[nH]cc(CCN3CCN(c4cccc(C(F)(F)F)n4)CC3)c2cc1OC` [Example 69] returned an IC50 of 479 nM.

In turn, `Fc1ccc2[nH]cc(C3=CCC(N4CCN(c5cccc(Cl)n5)CC4)CC3)c2c1` (stereo not shown) [Example 70] came in with an IC50 of 141 nM.

`COc1ccc(Cl)nc1N1CCN(CCCc2c[nH]c3ccccc23)CC1` [Example 71] returned a half-inhibitory concentration (IC50) of 4.9 nM.

In the case of `CC1CN(c2cccc(Cl)n2)CCN1CCCc1c[nH]c2ccccc12` (stereo not shown) [Example 72], the 50% inhibitory concentration (IC50) amounted to 18.7 nM.

As a reminder, the IC50 is the concentration at which inhibition is half-maximal. The low end stands for greater potency in that assay, the high end for weaker potency in that assay.
